Data taken from patent US5455348A, “2-pyrrolidinones, pharmaceutical compositions containing these compounds and processes for preparing them” (Thomae; Karl, priority 1991, dated 1995).
Counter-ions that a name gives are not always drawn. Like-named read-outs stand apart in the source and are kept apart here.

Assays:
[1] = molecular target: fibrinogen binding to human thrombocytes; test: Fibrinogen binding to human thrombocytes; settings: gel-filtered human platelets, 125I fibrinogen, ADP, 20 minutes, ambient temperature; read-out: Fibrinogen-binding test IC50
Method: The blood obtained by puncturing an antecubital vein is anticoagulated with trisodium citrate (final concentration: 13 mM) and centrifuged for 10 minutes at 170×g. The supernatant platelet-rich plasma is poured onto a Sepharose 2B column (Pharmacia) and eluted with a solution of 90 mM common salt, 14 mM trisodium citrate, 5 mM glucose and 50 mM Tris(hydroxymethyl)aminomethane, adjusted to pH 7.4. The gel-filtered platelets (GFP) appearing before the plasma proteins are used for the binding experiments.
50 μl of a 60 mM calcium chloride solution, 50 μl of a 0.6 mM adenosine diphosphate solution, 100 μl of substance solution or solvent and 50 μl of fibrinogen solution (containing 3 μg of ^125 I fibrinogen) are added to 750 μl of GFP and incubated for 20 minutes at ambient temperature. The non-specific binding is determined in the presence of 3 mg/ml of cold fibrinogen.
900 μl of the incubated material are carefully pipetted onto 250 μl of silicon oil (AP 38: AR 20, 1:2 v/v, Wacker Chemie) in Eppendorf tubes and centrifuged for 2 minutes at 10,000×g. The aqueous supernatant and some of the oil are drawn off, the tips of the tubes are cut off together with the platelet pellet and the quantity of bound fibrinogen is determined in a gamma counter. The concentration of substance which brings about a 50% inhibition in fibrinogen binding is determined from a series of concentrations and is given as the IC50 value.

[2] = tested on: collagen-induced thrombocyte aggregation in platelet-rich plasma; test: Collagen-induced platelet aggregation in platelet-rich plasma (Born and Cross method); format: cell-based, healthy volunteers (human); settings: read-out: Inhibition of platelet aggregation EC50
Method: The thrombocyte aggregation is measured using the Born and Cross method (J. Physiol. 170: 397 (1964)) in platelet-rich plasma taken from healthy volunteers. To inhibit coagulation the blood is mixed with 3.14% sodium citrate in a ratio by volume of 1:10.
Collagen-induced aggregation
The pattern of the decrease in optical density of the platelet suspension is photometrically measured and recorded after the addition of aggregation-triggering substance. The rate of aggregation is concluded from the angle of inclination of the density curve. The point on the curve where there is maximum light transmittance is used to calculate the optical density.
The amount of collagen used is as small as possible but sufficient to produce an irreversible reaction curve. Standard commercial collagen produced by Hormonchemie of Munich is used. Before the addition of the collagen the plasma is incubated for 10 minutes with the substance at 37° C.
From the measurements obtained an EC50 is determined graphically, indicating a 50% change in the optical density in terms of the inhibition of aggregation.

[3] = Tolerance after intravenous administration; format: in vivo; settings: intravenous administration of 30 mg/kg to three mice
[4] = tested on: collagen-induced thrombocyte aggregation; test: Inhibition of collagen-induced thrombocyte aggregation ex vivo after oral administration; format: in vivo; settings: Rhesus monkeys, oral administration of 1 mg/kg
Method: Moreover, the compound of Example 5, for example, inhibits the collagen-induced thrombocyte aggregation ex vivo in Rhesus monkeys for more than 8 hours after oral administration of 1 mg/kg.

[5] = collagen-induced, human platelet-rich plasma, 10 minutes preincubation at 37° C.

Nc1nccc2cc(-c3ccc(OC[C@@H]4C[C@@H](CC(=O)O)C(=O)N4)cc3)ccc12 [Example 4(3), (3S,5S)-5-[[4-(1-amino-6-isoquinolinyl)phenyl]oxymethyl]-3-carboxymethyl-2-pyrrolidinone-hydrochloride]
IC50 [1]: 160 nM | EC50 [2, 5]: 38000 nM

N=C(N)c1ccc2c(c1)CCN(C(=O)NCC[C@@H]1C[C@@H](CC(=O)O)C(=O)N1CCCc1ccccc1)CC2 [Example 4(8), (3S,5S)-5-[2-[(7-amidino-1H-2,3,4,5-tetrahydro-3-benzazepin-3-yl)carbonylamino]ethyl]-3-carboxymethyl-1-(3-phenylpropyl)-2-pyrrolidinone×2 H2 O]
IC50 [1]: 770 nM | EC50 [2, 5]: 5500 nM

N=C(N)c1cnc(-c2ccc(OC[C@@H]3C[C@@H](CC(=O)O)C(=O)N3)cc2)s1 [Example 1(3), (3S,5S)-5-[[4-(5-amidino-2-thiazolyl)phenyl]oxymethyl]-3-carboxymethyl-2-pyrrolidinone×0.6 H2 O]
IC50 [1]: 42 nM | EC50 [2, 5]: 100 nM

N=C(N)c1ccc(NC(=O)c2cccn(C[C@@H]3C[C@@H](CC(=O)O)C(=O)N3CCCc3ccccc3)c2=O)cc1 [4(18)]
IC50 [1]: 55 nM | EC50 ([2]; Homo sapiens, Platelet): 430 nM | animals died [3]: no animals died

N=C(N)c1ccc(-c2ccc(OC[C@@H]3C[C@@H](CC(=O)O)C(=O)N3c3cccnc3)cc2)cc1 [Example 4(6), (3S,5S)-5-[(4'-amidino-4-biphenylyl)oxymethyl]-3-carboxymethyl-1-(3-pyridyl)-2-pyrrolidinone×1.2 H2 O]
IC50 [1]: 31 nM | EC50 [2, 5]: 160 nM

N=C(N)c1ccc(-c2ccc(NC[C@@H]3C[C@@H](CC(=O)O)C(=O)N3)nn2)cc1 [Example 4(13), (3S,5S)-5-[[6-(4-amidinophenyl)-3-pyridazinyl]aminomethyl]-3-carboxymethyl-2-pyrrolidinone]
IC50 [1]: 59 nM | EC50 [2, 5]: 590 nM

N=C(N)c1ccc(-c2ccc(OC[C@@H]3C[C@@H](CC(=O)O)CN3C(=O)c3cccnc3)cc2)cc1 [Example 4(4), (3S,5S)-5-[(4'-amidino-4-biphenylyl)oxymethyl]-3-carboxymethyl-1-nicotinoyl-pyrrolidine]
IC50 [1]: 140 nM | EC50 [2, 5]: 210 nM

Cn1nc(-c2ccc(C(=N)N)cc2)cc(C(=O)NC[C@@H]2C[C@@H](CC(=O)O)C(=O)N2)c1=O [Example 4(15), (3S,5S)-5-[[[6-(4-amidinophenyl)-2-methyl-3(2H)-pyridazinon-4-yl]carbonyl]aminomethyl]-3-carboxymethyl-2-pyrrolidinone]
IC50 [1]: 590 nM | EC50 [2, 5]: 3000 nM

N=C(N)c1ccc(-c2ccc(OC[C@@H]3C[C@@H](CC(=O)O)CN3c3ncccn3)cc2)cc1 [Example 4(2), (3S,5S)-5-[(4'-amidino-4-biphenylyl)oxymethyl]-3-carboxymethyl-1-(2-pyrimidyl)-pyrrolidine×0.25 HCl×0.4 H2 O]
IC50 [1]: 200 nM | EC50 [2, 5]: 540 nM

N=C(N)c1ccc(-c2ccc(OC[C@@H]3C[C@@H](CC(=O)O)C(=O)N3)cc2)nc1 [Example 1, (3S,5S)-5-[[4-(5-amidino-2-pyridyl)phenyl]oxymethyl]-3-carboxymethyl-2-pyrrolidinone]
EC50 [2, 5]: 60 nM | animals died [3]: no animals died

O=C(O)C[C@@H]1C[C@@H](CCNC(=O)c2ccc(C3CCNCC3)cc2)N(CCCc2ccccc2)C1=O [Example 12(6), (3S,5S)-3-carboxymethyl-1-(3-phenylpropyl)-5-[2-[[4-(4-piperidinyl)phenyl]carbonylamino]ethyl]-2-pyrrolidinone×0.75 H2 O]
IC50 [1]: 570 nM | EC50 [2, 5]: 3800 nM

COC(=O)C[C@@H]1C[C@@H](COc2ccc(-c3ccc(C(=N)NC(=O)OC)cn3)cc2)NC1=O [Example 5, (3S,5S)-5-[[4-[5-(N-Methoxycarbonylamidino)-2-pyridyl]phenyl]oxymethyl]-3-[(methoxycarbonyl)methyl]-2-pyrrolidinone]
inhibits the collagen-induced thrombocyte aggregation ex vivo for (duration) [4]: more than 8 hours

N=C(N)N1Cc2ccc(C(=O)NCC[C@@H]3C[C@@H](CC(=O)O)C(=O)N3CCCc3ccccc3)cc2C1 [Example 11, (3S,5S)-5-[2-[(2-amidino-5-isoindolinyl)carbonylamino]ethyl]-3-carboxymethyl-1-(3-phenylpropyl)-2-pyrrolidinone]
IC50 [1]: 270 nM | EC50 [2, 5]: 890 nM

N=C(N)c1ccc(-c2ccc(OC[C@@H]3C[C@@H](CC(=O)O)C(=O)N3CCCc3ccccc3)nn2)cc1 [Example 4(11)]
IC50 [1]: 32 nM | EC50 [2, 5]: 100 nM

COC(=O)C[C@@H]1C[C@@H](COc2ccc(-c3ccc(C(=N)N)cc3)cc2)N(c2cccnc2)C1=O [Example 6(3), (3S,5S)-5-[(4'-amidino-4-biphenylyl)oxymethyl]-3-[(methoxycarbonyl)methyl]-1-(3-pyridyl)-2-pyrrolidinone×1.2 HCl×1 H2 O]
IC50 [1]: 13000 nM | EC50 [2, 5]: 2500 nM
